What was measured:
[1] = test system: diabetic rats; conditions: adult animals after subtotal pancreatectomy; cited from earlier work
[2] = test system: ARIP cells; test: RT-PCR of islet β-cell specific transcripts, ARIP cells; type: cell-based, rat; conditions: Exendin-9 100 nM for 72 h
Procedure: (§1) After the treatment of ARIP and PANC-1 cells with GLP-1, Exendin-9, or vehicle, for the described length of time and the various doses, the culture medium was removed and the cells were washed (twice) with serum-free medium. Total RNA was isolated using the TRiazol-method (Gibco-BRL), and treated with DNase (Amplification Grade, GibcoBRL) in 20 mmol/l Tris-HCL (pH 8.4), 2 mmol/l MgCl2, and 50 mmol/l KCl to remove any traces of contaminating genomic DNA. RNA (2.5 μg) was then subjected to reverse transcription (RT reagents; Promega; Madison, Wis.). RT-PCR was undertaken in a volume of 50 μl of buffer containing 50 mmol/l KCl, 10 mmol/l Tris-HCl, 3.5 mmol/l MgCl2, 200 μmol/l each dNTPs, and 0.4 μmol/l each of sense and antisense primers to rat or human insulin (depending on the specific cell from which the RNA was extracted). Amplification was performed for 30 cycles at the denaturing temperature of 94° C. for 1 min, annealing temperature of 60° C. for 45 sec, and an extension temperature of 72° C. for 1 min. […] These included more irregular and variable cell shapes, with a cytoplasm less homogenous and “rougher” in appearance than control culture.
(§2) Treatment with GLP-1 induces the differentiation of ductal epithelial cells into insulin-producing cells. FIG. 2 illustrates a series of cell cultures grown with or without GLP-1 (10 nM) for 72 h. […] Preabsorption of the antibody with an excess of human recombinant insulin prevented the staining of insulin-positive GLP-1 treated cells (data not shown). While treatment with GLP-1 turned the majority of ARIP cells into […] For β-actin, the annealing temperature was raised to 64° C. for 1 min and gene-specific primers were used. For GLP-1-receptor (GLP-R) the annealing temperature used was 55° C. All other experimental conditions to amplify GLUT2, glucokinase, and GLP-R mRNAs were identical to those described for the amplification of insulin mRNA. RT and PCR conditions for human transcripts were identical to those described for rat mRNAs.
(§3) Southern blotting with species-specific full length cDNA probes for insulin, GLUT-2, glucokinase, GLP-1 receptor and β-actin was performed as previously described. Y. Wang, R. Perfetti, N. H. Greig, H. W. Holloway, K. A. DeOre, C. Montrose-Rafizadeh, D. Elahi, J. M. Egan, “Glucagon-like peptide-1 can reverse the age-related decline in glucose tolerance in rats.” J Clin Invest 99:2883-2889, 1997.

[3] = test system: PANC-1/IDX-1 cells; test: RT-PCR of islet β-cell specific transcripts, PANC-1/IDX-1 cells; type: cell-based, human; conditions: Exendin-9 100 nM for 72 h
Procedure: PANC-1 cells were transfected with a pcDNA3 construct (Invitrogen; Carlsbad, Calif.) harboring the wild-type full-length IDX-1 cDNA using LipoTAXI (Catalog N. 204110; Mammalian Transfection Kit, Stratagene; La Jolla, Calif.). Control cells were transfected with the vector alone. The selection of positive (i.e. transfected) cells was carried out by culturing the cells in the presence of 400 μg/ml of G418 sulfate (GN-04, Omega; Tarzana, Calif.).
as §1, §2, §3

Substance | effect on islet mass [1] | effect on expression of β-cell-specific genes [2] | effect on expression of β-cell-specific genes [3]
exendin4: an analog of the incretin hormone glucagon-like-peptide-1 | increase islet mass | – | –
Exendin-9: the peptide receptor antagonist of GLP-1 | – | inhibited the expression of GLUT-2, insulin and glucokinase | inhibited the expression of GLUT-2, insulin and glucokinase
